Measurements: patent US11192902B1, “Heterocyclic diazenyl pyridinone copper(II) complexes as pharmacological antitumor agents” (King Abdulaziz University, priority 2020, dated 2021)

Key:
[1] = system: MCF-7 human breast adenocarcinoma cells; assay: Cytotoxicity against MCF-7 human breast adenocarcinoma cells (MTT); assay type: cell-based; conditions: MCF-7 cells, 48 hrs
[2] = system: human primary hepatocytes THLE-2 (normal cell line); assay: Cytotoxic activity test on normal cell line THLE-2 (MTT assay); assay type: cell-based
Method: The samples were tested against the human primary hepatocytes THLE-2 (normal cell line, ATCC). Cells were maintained at sub-confluency at 37° C. in humidified air containing 5% CO2. The samples' concentrations ranged between (100 to 0.78 μg/ml) and the MTT assay was used to assess cell death.

CCCCCCn1c([O-])c(N=Nc2ccc(C)cc2)c(C)c(C#N)c1=O.CCCCCCn1c([O-])c(N=Nc2ccc(C)cc2)c(C)c(C#N)c1=O.[Cu+2] [D4]
Mean IC50, MCF-7 human breast adenocarcinoma cells [1]: 83.72 µg/mL | Mean IC50, THLE-2 human normal hepatocytes ([2]; THLE-2 cells, 48 hrs, MTT, 100 to 0.78 μg/ml, mean): 169.76 μg/mL | effect on the normal cell line (safety) ([2]; THLE-2 normal cell line, at the high concentration of 100 ppm): safe
